Where a SMILES comes first, the peptide text is derived from it. [ ]: non-standard residue; d: D form.
Columns and labels:
B cells = experiment: Activation of B cells by mitogenic proliferation (LPS, PWM); format: cell-based, C57BL/6 mice
Description: (§1) c) Activation of T or B cells by Mitogenic Proliferation
(§2) A mitogenic lectin (mitogen) is a glycoprotein which binds and cross-links specific cells surface carbohydrate determinants, and will polyclonally stimulate lymphoid cells. Lymphocyte activation by either antigens or mitogens results in intracellular changes and the subsequent development into a lymphoblast. Mitogenic stimulation of lymphocytes in vitro is believed to mimic the series of events which occur in vivo following their stimulation by specific antigens. PHA and ConA; PWM and LPS mitogens can be used as a measurement of T cell and B cell activity, respectively. Briefly, the spleen mononuclear leukocytes from C57BL/6 mice are incubated in the presence or absence of mitogens with or without candidate drugs. After 72 hours or 5 days, ^3 H-thymidine incorporation is recorded as an indication of cell proliferation.
(§3) Lymphocytes were isolated from mice spleen or human blood in accordance to methods well known in the art. 100 μl of cell suspension of 2×10^6 cells/ml was added per well (2x10^5 cells/well) and incubated in the presence of lectin at the following concentrations:
PWM=0.2 to 0.02% final concentration
(§4) Cells were incubated for 3 days with PHA or ConA, or 5 days with PWM or LPS. 1 μCi of tritiated thymidine was added to each well for the last 6 hours (or 0.5 μCi for 18 hrs). The cells were harvested in a cell Harvester (Tortech®) and counted in a Beta counter.

P815 target cells = experiment: Cytotoxic T lymphocytes (CTL) assay, 51Cr release, after 5 days mixed culture with drug; format: cell-based, C57BL/6 mice
Description: (§5) 1. Cytotoxic T Lymphocytes (CTL) Mixed Lymphocyte Reaction (MLR) and Mitogenic Response Assays
(§6) The protocols used are described in Hudson L., Haay F., Pratical immunology, 3rd edition, Blackwell, Scientific publications, Oxford 1989, p. 158-162, and p.447.
(§7) Lymphocytes were isolated from C57BL/6 mice and DBA/2 mice in accordance to techniques well known in the art. Cell concentration was adjusted to 10×10^6 cell/ml for each assay. The cells isolated from DBA/2 mice were irradiated with 3000 Rads.
(§8) In a 6 well plate, each well was set up with:
(§9) The cells were incubated for five days at 37° C. in 5% CO2, after which CTL and MLR assays were performed.
a) Cytotoxic T Lymphocytes (CTL)
P815 target cells were labelled with Cr^51 (0.1 mCi). After labelling, the cells were washed three times and resuspended to a concentration of 5×10^4 cells/ml in media. p T cells were then counted and diluted to obtain a concentration of 2.5×10^6 cells/ml, and then further diluted to obtain the following effector:target ratios:
100 μl of target cells+100 μl of CTLs were incubated for 4 hours. In parallel wells, 100 μl of target cells+100 μl of media were incubated for spntaneous release. After incubation, cells were centrifuged and 100 μl of supernatant was then counted using a gamma counter.
Results are expressed as % specific ^51 Cr release= [formula] where ER=experimental release, SR=spontaneous releaase, and
0 represents less than 20%, + represents 20-40%, ++ represents 40-60%, +++ represent 60-80%, and ++++ represents 80% and over.

T cells = experiment: Activation of T cells by mitogenic proliferation (ConA, PHA); format: cell-based, C57BL/6 mice
Description: as §1, §2, §3
PHA=0.01% to 0.001% final concentration
as §4

[1] = system: C57BL/6 lymphocytes with irradiated DBA/2 cells; experiment: Mixed lymphocyte reaction (MLR), 3H thymidine uptake; format: cell-based, mice
Description: as §5, §6, §7, §8, §9
b) Mixed Lymphocyte Reaction (MLR)
Mixed lymphocyte reaction is an in vitro counterpart of the allograft rejection. Briefly, lymphocyte activation (mitotic response) is obtained when cells from two inbred strains or from two outbred individuals of any species are mixed in in vitro culture. To have a unidirectional response, the proliferation of either cell type may be blocked with X-ray irradiation or mitomycin C treatment. After 4 days incubation, ^3 H thymidine uptake and cytotoxicity assays (CTL) were performed. The cells were then resuspended and 100 μl of cell suspension was deposited in each well of a 96 well plate. 1 μCi of tritiated thymidine was added for 6 hours. After incubation, the cells were then harvested and counted using a Microbeta counter.

[2] = concentration not given, 0 not defined

Row | Compound | Activation of B Cells, LPS (B cells; 10^-8 - 10^-5 M) | Activation of B Cells, PWM (B cells; 10^-8 - 10^-5 M) | stimulation of B cells in vitro (in words) (B cells; summary of Table 1) | CTL, % augmentation compared to IL-2 (IL-2 is 100%) (P815 target cells; 10^-9 M) | Activation of T Cells, ConA (T cells; 10^-12 M - 10^-10 M) [×] | Activation of T Cells, PHA (T cells; [2]) | stimulation of T cells in vitro (in words) (T cells; summary of Table 1) | MLR ([1]; 10^-9 M) [×] | Activation of B Cells, LPS (B cells; [2]) | Activation of B Cells, PWM (B cells; [2]) | stimulation of CTL in vitro (in words) (P815 target cells; summary of Table 1) | Activation of T Cells, ConA (T cells; [2]) | MLR [1, 2] | CTL, % augmentation compared to IL-2 (IL-2 is 100%) (P815 target cells; concentration not given)
1 | NCCCC[C@H](N)C(=O)N[C@@H](CC(N)=O)C(=O)NCC(=O)N[C@@H](Cc1ccc(O)cc1)C(=O)O [PEPTIDE #2, H-Lys-Asn-Gly-Tyr-OH] (H-KNGY-OH) | 1.8 - 3.5 × | 1.4 - 4.5 × | stimulates B cells | ++++ (++++ represents 80% and over) | 1.3 | 0 | stimulates T cells to a moderate extent | 1.8 |  |  |  |  |  | 
2 | NCCCC[C@H](N)C(=O)N[C@@H](CC(N)=O)C(=O)N1CCC[C@@H]1C(=O)N[C@@H](Cc1ccc(O)cc1)C(=O)O [PEPTIDE #3, H-Lys-Asn-(D-Pro)-Tyr-OH] (H-KN[dP]Y-OH) |  |  |  | ++ (++ represents 40-60%) |  | 0 |  |  | 0 | 0 | stimulate CTL | 0 | 0 | 
3 | NCCCC[C@H](N)C(=O)N[C@@H](CC(N)=O)C(=O)N1CCC[C@H]1C(=O)N[C@@H](Cc1ccccc1)C(=O)O [PEPTIDE #4, H-Lys-Asn-Pro-Phe-OH] (H-KNPF-OH) |  |  |  |  |  | 0 |  |  | 0 | 0 |  | 0 | 0 | 0 (0 represents less than 20%)
4 | NCCCC[C@H](N)C(=O)N[C@@H](CCC(N)=O)C(=O)N1CCC[C@H]1C(=O)N[C@@H](Cc1ccc(O)cc1)C(=O)O [PEPTIDE #6, H-Lys-Gln-Pro-Tyr-OH] (H-KQPY-OH) |  |  |  |  |  | 0 |  |  | 0 | 0 |  | 0 | 0 | 0 (0 represents less than 20%)
5 | NCC(=O)N[C@@H](CC(N)=O)C(=O)N1CCC[C@H]1C(=O)N[C@@H](Cc1ccc(O)cc1)C(=O)O [PEPTIDE #8, H-Gly-Asn-Pro-Tyr-OH] (H-GNPY-OH) |  |  |  |  |  | 0 |  |  | 0 | 0 |  | 0 |  | 

Reference: US5980913A, “Peptides having immunomodulatory activity” (Biochem Pharma, Inc., priority 1994, dated 1999)
